From ChEMBL document CHEMBL3272350, “Drugs derived from cannabinoids. 4. Effect of alkyl substitution in sulfur and carbocyclic analogs” (J Med Chem, 1976)
The source made the active and inactive calls.

Assays:
Mus musculus [1] = assay: Antidepressant activity in mouse assessed as potentiation of dopa-induced motor responses at 5 mg/kg, po pretreated with compound followed by dopa challenge for 4 hrs; assay type: functional, organism-based; design: dose 5 mg/kg
Mus musculus [2] = assay: Analgesic activity in po dosed mouse by hot-plate test; assay type: functional
Canis familiaris [3] = assay: Antianxiety activity in dog assessed as decrease in reactivity and ataxia at 10 mg/kg, po administered as single dose measured every 15 mins for 24 hrs; assay type: functional, organism-based; design: dose 10 mg/kg; settings: Canis lupus familiaris
Canis familiaris [4] = assay: Antianxiety activity in dog assessed as decrease in reactivity and ataxia at 1 mg/kg, po administered as single dose measured every 15 mins for 24 hrs; assay type: functional, organism-based; design: dose 1 mg/kg; settings: Canis lupus familiaris
[5] = Acute toxicity in po dosed Swiss-Webster mouse assessed as mortality measured for 7 days; assay type: organism-based; settings: in vivo
Mus musculus [6] = assay: Anticonvulsant activity in mouse assessed as protection against audiogenic seizure at 10 mg/kg, po administered for 1 hr prior to testing relative to control; assay type: functional
Mus musculus [7] = assay: Analgesic activity in po dosed mouse assessed as inhibition of acetic acid-induced writhing administered 30 mins prior to acetic acid challenge measured after 5 mins for 20 mins; assay type: functional
Felis catus [8] = assay: Sedative-hypnotic activity in cat assessed as increase in total sleep time at 0.5 mg/kg, po administered with diet for 15 to 20 mins measured for 14 hrs; assay type: functional
Mus musculus [9] = assay: Antianxiety activity in albino BALB/cJ mouse assessed as reduction of footshock-induced fighting behavior at 10 mg/kg, po after 90 mins relative to control; assay type: functional; design: scale not given: the % may be the effect or the level left
Mus musculus [10] = assay: Anticonvulsant activity in mouse assessed as protection against audiogenic seizure at 30 mg/kg, po administered for 1 hr prior to testing relative to control; assay type: functional
Rattus norvegicus = assay: Analgesic activity in po dosed Sprague-Dawley rat assessed as increase in pain threshold measured at 15 to 90 mins by tail-flick test; assay type: functional
Canis familiaris [11] = assay: Antianxiety activity in dog assessed as decrease in reactivity and ataxia at 0.1 mg/kg, po administered as single dose measured every 15 mins for 24 hrs; assay type: functional, organism-based; design: dose 0.1 mg/kg; settings: Canis lupus familiaris
Felis catus [12] = assay: Sedative-hypnotic activity in cat assessed as increase in total sleep time at 0.1 mg/kg, po administered with diet for 15 to 20 mins measured for 14 hrs; assay type: functional
Felis catus [13] = assay: Sedative-hypnotic activity in cat assessed as increase in total sleep time at 0.25 mg/kg, po administered with diet for 15 to 20 mins measured for 14 hrs; assay type: functional
Felis catus [14] = assay: Sedative-hypnotic activity in cat assessed as increase in total sleep time at 1 mg/kg, po administered with diet for 15 to 20 mins measured for 14 hrs; assay type: functional
Felis catus [15] = assay: Sedative-hypnotic activity in cat assessed as increase in total sleep time at 2 mg/kg, po administered with diet for 15 to 20 mins measured for 14 hrs; assay type: functional
Canis familiaris [16] = assay: Antianxiety activity in dog assessed as decrease in reactivity at 0.1 mg/kg, po administered as single dose measured every 15 mins for 24 hrs; assay type: functional, organism-based; design: dose 0.1 mg/kg; settings: Canis lupus familiaris
Canis familiaris [17] = assay: Antianxiety activity in dog assessed as decrease in reactivity at 1 mg/kg, po administered as single dose measured every 15 mins for 24 hrs; assay type: functional, organism-based; design: dose 1 mg/kg; settings: Canis lupus familiaris

SMILES | Activity (Mus musculus [1]) | ED50 (Mus musculus [2]) [mg/kg] | Activity (Canis familiaris [3]) | Activity (Canis familiaris [4]) | LD50 at 168 h [5] [mg/kg] | Activity (Mus musculus [6]) | ED50 (Mus musculus [7]) [mg/kg] | Time (Felis catus [8]) [min] | Activity (Mus musculus [9]) [%] | Activity (Mus musculus [10]) [%] | ED50 (Rattus norvegicus) [mg/kg] | Activity (Canis familiaris [11]) | Time (Felis catus [12]) [min] | Time (Felis catus [13]) [min] | Time (Felis catus [14]) [min] | Time (Felis catus [15]) [min] | Activity (Canis familiaris [16]) | Activity (Canis familiaris [17])
CCCCCC(C)C(C)c1cc(O)c2c(c1)OC(C)(C)C1=C2CC(C)CC1 (stereo not given) | Active | 12.4 | Active | Active | > 500 | 66% | 19.6 | 62 | 66 |  |  |  |  |  |  |  |  | 
CCCCCC(C)C(C)c1cc(O)c2c(c1)OC(C)(C)C1=C2C(C)CCC1 (stereo not given) | Active | 25 | Active | Active | > 500 |  | 10.5 | 54 | 33 | 33 |  |  |  |  |  |  |  | 
CCCCCC(C)C(C)c1cc(O)c2c(c1)OC(C)(C)C1=C2CC(C)(C)C1 (stereo not given) | Active |  | Active |  | > 500 | inactive | > 40 |  | 33 |  | > 40 |  |  |  |  |  |  | 
CCCCCC(C)C(C)c1cc(O)c2c(c1)OC(C)(C)C1=C2C(C)CS1 (stereo not given) | Active | 1.4 |  | Active | > 500 | 33% | 4.7 |  | 33 |  |  | Active | 21 | 50 |  |  |  | 
CCCCCC(C)C(C)c1cc(O)c2c(c1)OC(C)(C)C1=C2C(C)CC1 (stereo not given) | Active |  | Active | Active | > 500 | 66% | 13.3 | 58 | 66 |  |  |  |  |  |  |  |  | 
CCCCCC(C)C(C)c1cc(O)c2c(c1)OC(C)(C)C1=C2CC(C)S1 (stereo not given) | Active |  | Active |  | > 500 | 1% | 34 |  | 33 |  |  |  |  |  |  |  |  | 
CCCCCC(C)C(C)c1cc(O)c2c(c1)OC(C)(C)C1=C2CCS1 (stereo not given) | Active |  | Active |  | > 500 | 33% |  |  | 33 |  |  |  |  |  | 30 | 31 | Active | 
CCCCCC(C)C(C)c1cc(O)c2c(c1)OC(C)(C)C1=C2CC(C)(C)S1 (stereo not given) | Active |  | Active |  | > 500 | 1% | > 40 |  | 1 |  |  |  |  |  |  |  |  | 
CCCCCC(C)C(C)c1cc(O)c2c(c1)OC(C)(C)C1=C2CCC1 (stereo not given) | Active | 45.1 | Active |  | > 500 | 1% | 25.3 | 59 | 33 |  |  |  |  |  |  | 65 |  | Active
CCCCCC(C)C(C)c1cc(O)c2c(c1)OC(C)(C)C1=C2CC(C)C1 (stereo not given) | Active |  | Active | Active | > 500 | inactive | 22.6 |  | 1 |  |  |  |  |  |  |  |  | 
